From US5591709A, “Compositions and methods for treating wounds” (Life Medical Sciences, Inc., priority 1995, dated 1997)

System: 2×3 cm full-thickness skin wounds on the dorsum
Test: Guinea pig full-thickness skin wound closure (fractional change in wound area, closure rate, peak closure day)
Assay type: in vivo, Hartley-derived guinea pigs
Details: for Peak Closure Day (% Closure): % closure at the peak closure day; for Peak Closure Day: day of maximum closure rate, gel every 48 hours; for Closure % (Day) 50%: day on which 50% wound closure was reached, gel about 1 cc/cm^2 every 48 hours; for Peak closure rate (comparison in words): hormones in Agarose in saline (no medium), singly or three together; for Peak closure rate occurred later / closure rate of 50% slower: single hormone in Agarose in media; for Peak closure rate occurred later: compared to Media+3 hormones together; for closure rate of 50% slower: compared to the combination of the three hormones in media; for wound healing activity in medium relative to the same in saline: Agarose in medium vs Agarose in saline (without medium); for closure of 50% faster: single hormone in Agarose in saline (no medium), comparator not clearly stated
Method: Under general anaesthesia of […], four 2×3 cm full-thickness skin patches were surgically extirpated from the dorsum of Hartley-derived guinea pigs. After application of the gel (about 1 cc/cm^2) to the wounds, the wounds were dressed with Omiderm, a polyurethane-based synthetic wound dressing (Omikron, Israel) and anchored with gauze and elastic adhesive bandage. Change of the bandages and administration of the gels were performed every 48 hours, under general anaesthesia, at which time in one group, the wounds were washed with ESDC disinfectant (Symbollon Corp., Mass., USA), washed with warm saline, measured and photographed. Computerized morphometric measurements of the photographs were made and the dynamics of the regeneration process were quantified and analyzed. A more detailed description and the results of these experiments is presented herein. Hartley-derived Albino guinea pigs weighing 300-400 grams were used in this study. The animals were housed in individual cages and fed regularly guinea pig chow and water enriched with Vitamin C ad libitum. […] All histological sections were prepared using Hematoxylene and Eosin stain as well as Mason's trichrome method for collagen. Each animal was anesthetized and four bilaterally symmetrical full-thickness skin segments measuring 2×3 cm were excised from the dorsum of each animal, two from the scapular region and two from the lumbar region. After washing the wounds with warm saline, the wounds were dressed with the gel at a concentration of about 1 cc/cm^2, covered with a polyurethane based synthetic membrane Omiderm (Omikron, Israel) and anchored with gauze, elastic adhesive and a […]., Italy). The dressings were changed every 48 hours under general anaesthesia, at which time the wounds were washed with warm saline to remove any debris and the remaining gel within the wound, measured, photographed and fresh gel was applied and the wounds dressed as described above. In one experiment, a disinfectant compress of ESDC (Symbollon, Corp.) was applied during the change of dressing for about ten minutes, preceded and followed by warm saline rinse. At days 4, 6, 8, 10 and 12, the animals were sacrificed and the wounds with the surrounding tissues were extirpated and prepared for histological examination. The thickness of the newly formed epithelial layer and of the underlying granulation tissue were measured using light microscopy (Zeiss) at 100×magnification. The wound macrophotographs were analyzed using ImageMeasure (Phoenix Corp., Seattle, Wash.) computerized morphometric program and the experimental results were plotted as graphs showing the fractional change in area (i.e. closure rate) of the wounds treated with gel-media+hormones versus the various controls. The wound closure rate was tabulated and peak closure day (% closure) was determined. Peak closure rate has been used as a measure of wound healing potency. Peak closure rate is the maximum slope of the [formula] vs. time curve. Peak closure rate indicates the time after the start of the treatment at which tissue healing or growth rate reaches a maximum value (maximum rate); i.e., when the treatment is optimal.

Compound | concentration level relative to triiodothyronine giving the same effect (relative to triiodothyronine) | Peak Closure Day (% Closure) | Peak Closure Day | Closure % (Day) 50% | Peak closure rate (comparison in words) | Peak closure rate occurred later | closure rate of 50% slower | wound healing activity in medium relative to the same in saline | wound healing, medium plus insulin vs medium plus IGF (Agarose in medium, IGF at 8 ng/ml, through day 9) | closure of 50% faster
N[C@@H](Cc1cc(I)c(Oc2cc(I)c(O)c(I)c2)c(I)c1)C(=O)O [thyroxine, reference compound] | 3-5 times |  |  |  |  |  |  |  |  | 
Growth Hormone: human growth hormone at 2 ng/ml in Agarose gel, in saline or in medium |  | 50% | 6.0 days | 6.0 days | the same | 33% | 75% |  |  | 
Insulin |  | 30% | 3.0 days | 5.0 days | the same | 33% | 75% | substantially enhanced wound healing activity | substantially better | 15%
Triiodothyronine/thyroxine [reference compound] |  | 30% | 3.0 days | 5.0 days | the same | 33% | 75% | substantially enhanced wound healing activity |  | 15%
